From ChEMBL document CHEMBL1127209, “Aromatic isosteres as conformational probes for an isoprenyl subunit: application to inhibitors of squalene synthase” (Bioorg Med Chem Lett, 1993)

T1: Squalene synthase (Rattus norvegicus, UniProt Q02769)
T1 sequence (Q02769 whole entry): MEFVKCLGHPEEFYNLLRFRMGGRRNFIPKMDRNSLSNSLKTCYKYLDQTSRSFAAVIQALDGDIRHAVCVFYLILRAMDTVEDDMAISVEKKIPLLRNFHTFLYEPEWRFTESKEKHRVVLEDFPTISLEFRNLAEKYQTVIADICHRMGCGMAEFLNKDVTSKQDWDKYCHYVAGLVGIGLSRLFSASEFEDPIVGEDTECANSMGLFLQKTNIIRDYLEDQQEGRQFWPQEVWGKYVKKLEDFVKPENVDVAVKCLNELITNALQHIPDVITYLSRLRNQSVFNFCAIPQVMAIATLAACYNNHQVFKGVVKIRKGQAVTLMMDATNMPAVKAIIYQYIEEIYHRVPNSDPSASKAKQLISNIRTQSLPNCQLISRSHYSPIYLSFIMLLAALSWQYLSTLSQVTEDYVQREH


Experiments:
[1] = target: T1, Squalene synthase; assay: Tested for inhibitory potency against rat liver microsomal squalene synthase; settings: for IC50: read-out: I50
[2] = substrate: CC(C)=CCC/C(C)=C\CC/C(C)=C/COCP(=O)(O)CP(=O)(O)O; assay: Tested for Michaelis-Menten constant for squalene synthase

Molecule | IC50 [1] [nM] | Ki [1] [nM] | Km [2] [µM]
CC(C)=CCC/C(C)=C/c1ccc(COCP(=O)(O)CP(=O)(O)O)cc1 | 125 | – | –
CC(C)=CCC/C(C)=C\CC/C(C)=C/COCP(=O)(O)CP(=O)(O)O | 50 | 37 | –
CC(C)=CCC/C(C)=C/c1cc(C)c(COCP(=O)(O)CP(=O)(O)O)o1 | 41300 | – | –
CC(C)=CCC/C(C)=C/c1ccc(COCP(=O)(O)CP(=O)(O)O)c(C)c1 | 13700 | – | –
CC(C)=CCC/C(C)=C\CC/C=C/COCP(=O)(O)CP(=O)(O)O | 165 | – | –
CC(C)=CCC/C(C)=C/c1cc(C)c(COCP(=O)(O)CP(=O)(O)O)s1 | 5300 | – | –
CC(C)=CCC/C(C)=C/c1cccc(COCP(=O)(O)CP(=O)(O)O)c1 | 5100 | – | –
CC(C)=CCC/C(C)=C/c1ccc(COCP(=O)(O)CP(=O)(O)O)s1 | 964 | – | –
Squalene synthase (Rattus norvegicus), Q02769 (protein) MEFVKCLGHPEEFYNLLRFRMGGRRNFIPKMDRNSLSNSLKTCYKYLDQTSRSFAAVIQALDGDIRHAVCVFYLILRAMDTVEDDMAISVEKKIPLLRNFHTFLYEPEWRFTESKEKHRVVLEDFPTISLEFRNLAEKYQTVIADICHRMGCGMAEFLNKDVTSKQDWDKYCHYVAGLVGIGLSRLFSASEFEDPIVGEDTECANSMGLFLQKTNIIRDYLEDQQEGRQFWPQEVWGKYVKKLEDFVKPENVDVAVKCLNELITNALQHIPDVITYLSRLRNQSVFNFCAIPQVMAIATLAACYNNHQVFKGVVKIRKGQAVTLMMDATNMPAVKAIIYQYIEEIYHRVPNSDPSASKAKQLISNIRTQSLPNCQLISRSHYSPIYLSFIMLLAALSWQYLSTLSQVTEDYVQREH | – | – | 12.7
